Experiments:
[1] = test system: Salmonella typhimurium TA1535; test: Salmonella/microsome assay, TA1535
Method: (§1) Stationary growth cultures of histidine auxotrophic Salmonella typhimurium (2 × 10^9 cells/mL) TA97, TA98, TA100, TA102, and TA1535 strains were obtained at 37°C in lysogenic broth (LB, 10 g/L tryptone; 5 g/L yeast extract; 10 g/L NaCl) containing 8 μg/mL ampicillin and 2 μg/mL tetracycline (only for TA102). All strains used in the present work were from our laboratory collection. […] Then, the Ames test was performed according to Maron and Ames. DMSO was used as a negative control. […] All chemicals were from Sigma Co.

[2] = test system: Salmonella typhimurium TA98; test: Salmonella/microsome assay, TA98; type: cell-based; details: +S9, positive control (PC) 517 μM
From the text: (§2) DMSO was used as a negative control. […] All chemicals were from Sigma Co.

[3] = test system: Salmonella typhimurium TA97; test: Salmonella/microsome assay, TA97; type: cell-based; details: +S9, positive control (PC) 517 μM
From the text: as §2

[4] = test system: Salmonella typhimurium TA100; test: Salmonella/microsome assay, TA100
Method: as §1

T. cruzi = test system: T. cruzi; set-up: method as in PMID 20510218; details: treated only with PBN; cited from earlier work
Salmonella = details: cited from earlier work
[5] = TA1535, −S9, positive control (PC) 154 μM
[6] = TA100, −S9, positive control (PC) 769 μM

Nc1ccc2cc3ccccc3cc2c1 [2-AA, 2-aminoanthracene]
MI (mutagenicity index) ([1]; Salmonella typhimurium): 10.1 | Number of revertant colonies per plate, Mean ± SD ([1]; Salmonella typhimurium): 168 ± 18^∗ | MI (mutagenicity index) [2]: 16.0 | Number of revertant colonies per plate, Mean ± SD [2]: 291 ± 36^∗ | MI (mutagenicity index) [3]: 9.0 | Number of revertant colonies per plate, Mean ± SD [3]: 1488 ± 139^∗ | MI (mutagenicity index) ([4]; Salmonella typhimurium): 4.6 | Number of revertant colonies per plate, Mean ± SD ([4]; Salmonella typhimurium): 1257 ± 107^∗

[N-]=[N+]=[N-].[Na+] [AS, sodium azide]
MI (mutagenicity index) [1, 5]: 47.3 | Number of revertant colonies per plate, Mean ± SD [1, 5]: 615 ± 83^∗ | MI (mutagenicity index) [4, 6]: 3.2 | Number of revertant colonies per plate, Mean ± SD [4, 6]: 637 ± 52^∗

CC(C)(C)/[N+]([O-])=C/c1ccccc1 [PBN, alpha-phenyl-tert-butyl nitrone]
parasite persistence (T. cruzi): no decline in parasite persistence

O=C(Cn1ccnc1[N+](=O)[O-])NCc1ccccc1 [benznidazole]
dose giving the maximum mutagenic rate (Salmonella): 100 micrograms per plate
